Results reported in patent publication US11130748B2, “Compounds” (MISSION THERAPEUTICS LIMITED, priority 2015, dated 2021).

Molecular target: USP30 (Homo sapiens (Human), UniProt Q70CQ3)
Test: USP30 biochemical IC50 assay
Conditions: fluorescence polarisation, TAMRA labelled peptide linked to ubiquitin; 30 min pre-incubation, 2 hr read; read-out: IC50 range
Protocol: USP30 Biochemical IC50 Assay
Dilution plates were prepared at 21 times the final concentration (2100 μM for a final concentration of 100 μM) in 50% DMSO in a 96-well polypropylene V-bottom plate (Greiner #651201). A typical 8-point dilution series to be 100, 30, 10, 3, 1, 0.3, 0.1, 0.03 μM final. Reactions were performed in duplicate in black 384 well plates (small volume, Greiner 784076) in a final reaction volume of 21 μl. Either 1 μl of 50% DMSO or diluted compound was added to the plate. USP30 was diluted in reaction buffer (40 mM Tris, pH 7.5, 0.005% Tween 20, 0.5 mg/ml BSA, 5 mM beta-mercaptoethanol) to the equivalent of 0.05 μl/well and 10 μl of diluted USP30 was added to the compound. Enzyme and compound were incubated for 30 min at room temp. Reactions were initiated by the addition of 50 nM of TAMRA labelled peptide linked to ubiquitin via an iso-peptide bond as fluorescence polarisation substrate. Reactions were read immediately after addition of substrate and following a 2 hr incubation at room temperature. Readings were performed on a Pherastar Plus (BMG Labtech). λ Excitation 540 nm; λ Emission 590 nm.

Sequence of USP30 (Q70CQ3 57-517): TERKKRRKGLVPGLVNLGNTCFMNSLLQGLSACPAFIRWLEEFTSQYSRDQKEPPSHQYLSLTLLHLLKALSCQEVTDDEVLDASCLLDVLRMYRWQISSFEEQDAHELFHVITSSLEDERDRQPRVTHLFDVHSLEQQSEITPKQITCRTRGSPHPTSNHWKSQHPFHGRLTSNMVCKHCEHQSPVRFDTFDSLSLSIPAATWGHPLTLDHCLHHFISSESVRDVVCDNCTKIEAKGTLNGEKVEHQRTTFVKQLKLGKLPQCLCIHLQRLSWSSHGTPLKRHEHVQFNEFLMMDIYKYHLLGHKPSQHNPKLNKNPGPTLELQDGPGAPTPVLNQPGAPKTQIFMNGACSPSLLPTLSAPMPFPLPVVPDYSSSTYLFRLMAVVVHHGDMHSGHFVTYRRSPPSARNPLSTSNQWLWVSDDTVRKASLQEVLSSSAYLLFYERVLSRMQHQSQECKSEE

IC50 [µM]	Structure (SMILES)
< 0.1	N#Cc1cccc(-c2nnc(C(=O)NC[C@H]3CCN(C#N)C3)o2)c1 [Example 68, (R)-5-(3-Cyanophenyl)-N-((1-cyanopyrrolidin-3-yl)methyl)-1,3,4-oxadiazole-2-carboxamide]
< 0.1	N#Cc1cccc(-c2nnc(C(=O)NC[C@@H]3CCN(C#N)C3)o2)c1 [Example 69, (S)-5-(3-Cyanophenyl)-N-((1-cyanopyrrolidin-3-yl)methyl)-1,3,4-oxadiazole-2-carboxamide]
1 to 10	N#CN1CC[C@H](CNC(=O)c2cn(-c3ccccc3)cn2)C1 [Example 70, (R)—N-((1-Cyanopyrrolidin-3-yl)methyl)-1-phenyl-1H-imidazole-4-carboxamide]
< 0.1	N#Cc1cccc(-n2cnc(C(=O)NC[C@H]3CCN(C#N)C3)c2)c1 [Example 71, (R)-1-(3-Cyanophenyl)-N-((1-cyanopyrrolidin-3-yl)methyl)-1H-imidazole-4-carboxamide]
0.1 to 1	COc1ccccc1-n1cnc(C(=O)NC[C@H]2CCN(C#N)C2)c1 [Example 73, (R)—N-((1-Cyanopyrrolidin-3-yl)methyl)-1-(2-methoxyphenyl)-1H-imidazole-4-carboxamide]
0.1 to 1	COc1cccc(-n2cnc(C(=O)NC[C@H]3CCN(C#N)C3)c2)c1 [Example 74, (R)—N-((1-Cyanopyrrolidin-3-yl)methyl)-1-(3-methoxyphenyl)-1H-imidazole-4-carboxamide]
1 to 10	N#CN1CC[C@H](CNC(=O)c2cn3cc(-c4cn[nH]c4)ccc3n2)C1 [Example 75, (R)—N-((1-Cyanopyrrolidin-3-yl)methyl)-6-(H-pyrazol-4-yl)imidazo[1,2-a]pyridine-2-carboxamide]
1 to 10	N#CN1CC[C@H](CNC(=O)c2cn3cc(-c4ccn[nH]4)ccc3n2)C1 [Example 76]
0.1 to 1	N#CN1CC[C@H](CNC(=O)c2cn3ccc(C4CC4)cc3n2)C1 [Example 77, (R)—N-((1-Cyanopyrrolidin-3-yl)methyl)-7-cyclopropylimidazo[1,2-a]pyridine-2-carboxamide]
0.1 to 1	N#CN1CC[C@H](CNC(=O)c2cn(Cc3ccccc3)cn2)C1 [Example 78, (R)-1-Benzyl-N-((1-cyanopyrrolidin-3-yl)methyl)-1H-imidazole-4-carboxamide]
1 to 10	N#CN1CC[C@H](CNC(=O)c2cn(CC3CC3)cn2)C1 [Example 79, (R)—N-((1-Cyanopyrrolidin-3-yl)methyl)-1-(cyclopropylmethyl)-1H-imidazole-4-carboxamide]
